Values of other authors, collected in US9650678B2, “Methods for identifying an increased risk of anthracycline-related cardiotoxicity” (CITY OF HOPE, priority 2012, dated 2017).

Tests used:
[1] = factor that reflects the drug's cardiotoxic potential
CBR1 = molecular target: T1, CBR1 (Homo sapiens, UniProt P16152)
T1 sequence (P16152 1-277): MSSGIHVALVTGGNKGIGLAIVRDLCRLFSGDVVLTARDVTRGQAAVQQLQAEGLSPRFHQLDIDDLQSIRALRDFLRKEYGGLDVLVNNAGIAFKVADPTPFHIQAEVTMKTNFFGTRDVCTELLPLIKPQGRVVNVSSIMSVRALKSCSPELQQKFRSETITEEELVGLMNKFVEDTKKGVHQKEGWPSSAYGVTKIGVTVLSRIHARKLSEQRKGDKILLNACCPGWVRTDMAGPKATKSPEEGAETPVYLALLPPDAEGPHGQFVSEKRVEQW

patients = details: package insert, doxorubicin hydrochloride injection (Teva)

SMILES | Conversion factor to Doxorubicin Isotoxic Dose [1] | synthesis of doxorubicinol, times faster (CBR3) | rate of doxorubicinol synthesis, fold higher (CBR1) | total cumulative dose in excess of which risk of potentially fatal congestive heart failure increases rapidly (patients)
COc1cccc2c1C(=O)c1c(O)c3c(c(O)c1C2=O)C[C@@](O)(C(=O)CO)C[C@@H]3O[C@H]1C[C@H](N)[C@@H](O)[C@H](C)O1 [Epirubicin] | 0.67 (⅔) | – | – | –
COc1cccc2c1C(=O)c1c(O)c3c(c(O)c1C2=O)C[C@@](O)([C@@H](O)CO)C[C@@H]3O[C@H]1C[C@H](N)[C@H](O)[C@H](C)O1 [doxorubicinol] | – | 2.6 times | 1.5 fold | –
COc1cccc2c1C(=O)c1c(O)c3c(c(O)c1C2=O)C[C@@](O)(C(=O)CO)C[C@@H]3O[C@H]1C[C@H](N)[C@H](O)[C@H](C)O1 [Doxorubicin] | 1 | – | – | greater than 400 mg/m^2
CC(=O)[C@]1(O)Cc2c(O)c3c(c(O)c2[C@@H](O[C@H]2C[C@H](N)[C@H](O)[C@H](C)O2)C1)C(=O)c1ccccc1C3=O [Idarubicin] | 5 | – | – | –
COc1cccc2c1C(=O)c1c(O)c3c(c(O)c1C2=O)C[C@@](O)(C(C)=O)C[C@@H]3O[C@H]1C[C@H](N)[C@H](O)[C@H](C)O1 [Daunomycin] | 0.833 (⅚) | – | – | –
